From PubChem BioAssay AID463074 (Broad Institute, 2010)
Calls of active or inactive are those of the source.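 The calls were made as follows: active = AC50 no more than tenfold above the top dose tested, or full inhibition at every dose with a flat fit (cut at about 19 µM in these data); inconclusive = flat curve fit with inhibition between 30% and 70%, or poor fit; inactive = AC50 more than tenfold above the top dose tested.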

System: HMLE_sh_eGFP viability, CellTiter-Glo luminescence, 72 h
Test: viability loss of HMLE_sh_eGFP cells – cell-based, luminescence, counter-screen for HMLE_sh_ECad selective toxicity project, dose response (AID 463074);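 also: counterscreen control line to flag general toxicity for the HMLE_sh_ECad screen; potency for loss of viability as luminescence drops below DMSO wells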

Row | Structure (SMILES) | AC50
1 | CCCCc1ccc(/C(C)=N/Nc2cc(N3CCOCC3)nc(C)n2)cc1 | 4.99 µM
2 | COc1ccc(C(=O)Nc2ccc(Nc3ccccc3)cc2)cc1[N+](=O)[O-] | 4.19 µM
3 | CN(C)CCNc1nc2sc3c(c2c(=O)n1CCc1ccccc1)CCCCC3 | 7.1 µM
4 | N#CCSc1nc2c(c(=O)n1Cc1ccco1)C1(CCCC1)Cc1ccccc1-2 | 0.468 µM
5 | COc1ccc(C)cc1NC(=O)c1ccccc1NS(=O)(=O)c1ccc(Cl)s1 | 7.89 µM
6 | C=C(CC[C@@H](O)C(C)(C)O)[C@H]1CC[C@]2(C)[C@@H]1CCC1[C@@]3(C)CCC(=O)C(C)(C)C3CC[C@]12C (stereo partly specified) | 2.52 µM
7 | COc1ccc(C(=O)C2CCCN(Cc3cc(C)c(O)c(C)c3)C2)c(OC)c1 (stereo unspecified) | 4.9 µM
8 | Cc1ccc(C(=O)/C=C/c2cc(Br)cc(Br)c2O)o1 | 3.57 µM
9 | CC(C)(C)OC(=O)[C@H](Cc1ccccc1)NC(=O)c1[nH]cnc1C(=O)Nc1ccc(Cl)cc1 | 3.92 µM
10 | C=C(C)COc1ccc(-c2n[nH]c(C)c2-c2ccc(OC)cc2)c(O)c1 | 4.47 µM
11 | C/C(=N\NC(N)=S)c1cc(-c2ccccc2)c(-c2ccccc2)s1 | 3.94 µM
12 | C[C@@H]1CN([C@@H](C)CO)C(=O)c2cc(NC(=O)Nc3ccc(F)cc3)ccc2O[C@@H]1CN(C)Cc1ccc(Oc2ccccc2)cc1 | 3.48 µM
13 | O=C1/C(=C\c2cc(Br)cc(Br)c2O)SC(=S)N1Cc1ccccc1 | 0.906 µM
14 | O=C(/C=C/c1ccc2c(c1)OCCCO2)c1ccc2ccccc2c1O | 12 µM
15 | CCOC(=O)c1c2ccc(OCC(=O)N/N=C/c3ccc(C)cc3)cc2n2ccccc12 | 11.8 µM
16 | O=C(CCc1ccccc1)Nc1sc2c(c1C(=O)O)CCCC2 | > 19.5 µM (inactive)
17 | CCCCSc1nc(C)cc(SCC(=O)N/N=C/c2cccc(OC)c2O)n1 | 11.8 µM
18 | COc1cccc(-c2sc3ccc(OC)cc3c2-c2ccc(OCCN(C)C)cc2)c1 | 3.59 µM
19 | Oc1ccccc1C1=NN(c2ccccc2)C(c2ccccc2)C1 (stereo unspecified) | 1.63 µM
20 | CCCCCCSc1cccc(-c2nc3cc(C)ccn3c2NC2CCCCC2)c1 | 9.77 µM
21 | O=c1[nH]c(CN2CCN(c3ccccn3)CC2)nc2c(Br)cc(Br)cc12 | 10.3 µM
22 | COc1ccc(C(=O)c2ccc3oc(-c4ccc(OC)cc4)c(-c4ccc(O)cc4)c3c2)cc1 | 3.87 µM
23 | CC(C)OCCCNC(=O)c1c(N)n(Cc2cccs2)c2nc3ccccc3nc12 | 4.3 µM
24 | c1ccc(CN2CCC(Nc3nc(-c4ccccc4)nc4ccccc34)CC2)cc1 | 6.67 µM
25 | COC(=O)C1=C(C)N(Cc2ccccc2)C(=NCc2ccccc2)N[C@H]1c1cccc(C(F)(F)F)c1 | 3.68 µM
26 | O=C(Nc1ccc(N2CCN(C(=O)c3cccs3)CC2)cc1)c1ccc([N+](=O)[O-])o1 | 1.87 µM

Row | Structure (SMILES) | AC50
27 | OC(CN1CCCCC1)Cn1c2ccc(Cl)cc2c2cc(Cl)ccc21 (stereo unspecified) | 7.56 µM
28 | O=C(N/N=C/c1ccc2c(c1)OCO2)c1ccc(COCC(F)(F)C(F)F)cc1 | 1.64 µM
29 | Cc1cccc(NC(=O)c2nc[nH]c2C(=O)N[C@H](C)c2ccccc2)c1 | 7.13 µM
30 | Cc1cc(N)n(-c2ccc(S(N)(=O)=O)cc2[N+](=O)[O-])n1 | > 19.5 µM (inactive)
31 | c1ccc(CNc2nc(N3CCN(Cc4ccccc4)CC3)nc3ccccc23)cc1 | 3.91 µM
32 | CN(C)CCn1c2ccccc2c2nc3ccc([N+](=O)[O-])cc3cc21 | 15.6 µM
33 | C/C(CC(=O)Nc1ccc(Cl)c(C(F)(F)F)c1)=N\NC(=O)c1cc2ccccc2cc1O | 13.3 µM
34 | Cc1nc([N+](=O)[O-])c(Br)n1CC(=O)c1ccc2ccccc2c1 | 6.46 µM
35 | CN1CCN(C2Cc3ccc(F)cc3Sc3cc(F)c(Cl)cc32)CC1 (stereo unspecified) | 5.49 µM
36 | CCC1C=CC=CC[C@H](C)[C@@H](O)[C@](C)(O)C(=O)[C@@H](C)[C@H](O)[C@@H](C)C(=O)[C@H](C)[C@@H](O)[C@H](C)C=CC(=O)OC2[C@@H](C)C(CC1)OC1(CC[C@@H](C)C(C[C@H](C)O)O1)[C@@H]2C (stereo partly specified) | 3.2 µM
37 | CCOC(=O)c1sc(NC(=O)c2cc(-c3ccccc3C)nc3ccccc23)c(C#N)c1C | 5.17 µM
38 | CC1=[N+](C)c2ccc3ccccc3c2C1(C)C | > 19.5 µM (inactive)
39 | COc1ccc2cc1Oc1ccc(cc1)C[C@H]1c3c(cc(OC)c4c3Oc3c(ccc5c3[C@H](C2)N(C)CC5)O4)CCN1C | 3.63 µM
40 | CN(C(=O)COC(=O)/C=C/c1cccc([N+](=O)[O-])c1)C1CCS(=O)(=O)C1 (stereo unspecified) | 4.61 µM
41 | COc1ccc(-c2sc3ccccc3c2/C=C/c2ccc(N)cc2)cc1 | 15.8 µM
42 | COc1ccc2nc(NC(=O)c3cccc(-c4cc5ccccc5oc4=O)c3)sc2c1 | 4.88 µM
43 | Cc1cc(C)cc(NS(=O)(=O)c2ccc(Oc3ncc(C(F)(F)F)cc3Cl)cc2)c1 | 4.3 µM
44 | O=C(/C=C/c1ccccc1)NNc1ccc(Cl)cc1 | 12 µM
45 | CCN1CCN(C(=O)c2ccc(CSc3ccc(C)cc3)cc2)CC1 | 0.22 µM
46 | COc1ccc2sc(-c3ccc(N(C)C)cc3)c(-c3ccc4cc[nH]c4c3)c2c1 | 16.5 µM
47 | COc1cc(C(=O)N/N=C(\Cc2ncc[nH]2)c2ccccc2)cc(OC)c1OC | 6.39 µM
48 | CC(C)(C)N(Cc1ccccc1)C(=O)c1cc2ccccc2o1 | 0.653 µM
49 | CCc1c(C2(O)CCCCC2)[nH]c2ccc(C(F)(F)F)cc12 | 3.56 µM
50 | CN1C2CCC1/C(=C\c1ccccc1)C(=O)/C2=C\c1ccccc1 | 4.24 µM
51 | COc1cc(/C=C/c2noc(-c3ccccc3O)n2)ccc1OC(C)=O | > 19.5 µM (inactive)
